Data published in the CheMixHub ionic liquid set.
Several values for one entry are separate records, joined by “and”; a condition that tells them apart may be missing. Equal values may be shown once.

Test: xn = mol fraction of the nth substance listed

CC[n+]1ccn(C)c1.CS(=O)(=O)[O-] + CC[n+]1ccn(C)c1.N#C[S-] + O
viscosity [mPa·s], 100 kPa
Settings	298.15 K	323.15 K
x2 = 0, x1 = 1	166.9	46.66
x2 = 0.03875, x1 = 0.1179	5.47	2.895
x2 = 0.0437, x1 = 0.133	6.29	3.29
x2 = 0.04778, x1 = 0.1454	6.96	3.598
x2 = 0.04973, x1 = 0.05117	2.902	1.645
x2 = 0.07374, x1 = 0.07586	4.308	2.366
x2 = 0.08472, x1 = 0.2579	14.08	6.86
x2 = 0.09552, x1 = 0.09828	5.65	3.039
x2 = 0.132, x1 = 0.4018	27.86	12.33
x2 = 0.1688, x1 = 0.1737	10.72	5.46
x2 = 0.1857, x1 = 0.5652	56.4	21.34
x2 = 0.1882, x1 = 0.06242	5.9	3.31
x2 = 0.2473, x1 = 0.7527	102.6	32.99
x2 = 0.2641, x1 = 0.2717	19.62	9.31
x2 = 0.3704, x1 = 0.3811	35.52	15.09
x2 = 0.3722, x1 = 0.1235	12.81	6.61
x2 = 0.4929, x1 = 0.5071	63.5	23.49
x2 = 0.5588, x1 = 0.1854	23.25	10.99
x2 = 0.7509, x1 = 0.2491	38.43	16.41

CC(=O)[O-].[K+] + O + CCCC[n+]1ccn(C)c1.O=S(=O)([O-])C(F)(F)F
Settings	viscosity [mPa·s]
308.15 K, 101 kPa, x1 = 0.01574, x2 = 0.9011	1.515

CCCO + CC[n+]1ccn(C)c1.N#C[S-]
101 kPa, x2 = 0
Settings	viscosity [mPa·s]
283.15 K	2.78
293.15 K	2.18
303.15 K	1.72
313.15 K	1.36
323.15 K	1.11

CCCC[n+]1ccn(C)c1.N[C@@H](CO)C(=O)[O-] + O
100 kPa
Settings	electrical conductivity [S/m]	viscosity [mPa·s]
298.15 K, x1 = 0.8281	0.00761	–
298.15 K, x1 = 0.8435	0.00711	–
298.15 K, x1 = 0.8592	0.00675	–
298.15 K, x1 = 0.8757	0.00646	–
298.15 K, x1 = 0.8914	0.00609	–
298.15 K, x1 = 0.8939	–	5180
298.15 K, x1 = 0.9163	–	5221
303.15 K, x1 = 0.8592	0.0107	–
303.15 K, x1 = 0.8757	0.0101	–
303.15 K, x1 = 0.8914	0.00973	–
303.15 K, x1 = 0.8939	–	3031
308.15 K, x1 = 0.8757	0.0159	–
313.15 K, x1 = 0.8939	–	1179
313.15 K, x1 = 0.939	–	1290
328.15 K, x1 = 0.8435	0.078	–
328.15 K, x1 = 0.8521	–	338
328.15 K, x1 = 0.8592	0.0738	–
328.15 K, x1 = 0.8939	–	367
328.15 K, x1 = 0.939	–	422
333.15 K, x1 = 0.8281	0.11	–
333.15 K, x1 = 0.8592	0.1	–
338.15 K, x1 = 0.8521	–	179.9
338.15 K, x1 = 0.8592	0.132	–

CCCO + CC[n+]1ccn(CCOC)c1.N#C[S-]
100 kPa, x2 = 0
Settings	viscosity [mPa·s]
288.15 K	2.49
293.15 K	2.2
298.15 K	1.95
303.15 K	1.732
308.15 K	1.545
313.15 K	1.382
318.15 K	1.24

CCCCCCCO + CCCC[n+]1ccn(C)c1.O=[N+]([O-])[O-]
100 kPa, x2 = 0
Settings	viscosity [mPa·s]
293.15 K	7.03
303.15 K	5.03
313.15 K	3.71
323.15 K	2.79

OC[C@H]1O[C@H](O[C@H]2[C@H](O)[C@@H](O)C(O)O[C@@H]2CO)[C@H](O)[C@@H](O)[C@@H]1O (stereo partly specified) + O + CCCC[n+]1ccn(C)c1.[Cl-]
298.15 K, 101.3 kPa
Settings	electrical conductivity
x1 = 0.003591, x3 = 5.29e-06	0.00303 S/m
x1 = 0.003591, x3 = 8.39e-06	0.00457 S/m
x1 = 0.003591, x3 = 1.182e-05	0.00625 S/m
x1 = 0.003591, x3 = 1.516e-05	0.00787 S/m
x1 = 0.003591, x3 = 1.84e-05	0.00941 S/m
x1 = 0.003591, x3 = 2.179e-05	0.011 S/m
x1 = 0.003591, x3 = 2.475e-05	0.01239 S/m
x1 = 0.003591, x3 = 2.776e-05	0.0138 S/m
x1 = 0.003591, x3 = 3.087e-05	0.01519 S/m
x1 = 0.003591, x3 = 3.39e-05	0.0165 S/m
x1 = 0.003591, x3 = 3.679e-05	0.0179 S/m
x1 = 0.007156, x3 = 7.85e-06	0.00369 S/m
x1 = 0.007156, x3 = 1.182e-05	0.00532 S/m
x1 = 0.007156, x3 = 1.573e-05	0.00691 S/m
x1 = 0.007156, x3 = 1.984e-05	0.00855 S/m
x1 = 0.007156, x3 = 2.38e-05	0.01011 S/m
x1 = 0.007156, x3 = 2.785e-05	0.0117 S/m
x1 = 0.007156, x3 = 3.214e-05	0.01336 S/m
x1 = 0.007156, x3 = 3.627e-05	0.0149 S/m
x1 = 0.007156, x3 = 4.07e-05	0.0166 S/m
x1 = 0.007156, x3 = 4.483e-05	0.01815 S/m
x1 = 0.0107, x3 = 7.55e-06	0.0031 S/m
x1 = 0.0107, x3 = 1.145e-05	0.00447 S/m
x1 = 0.0107, x3 = 1.56e-05	0.0059 S/m
x1 = 0.0107, x3 = 1.953e-05	0.00725 S/m
x1 = 0.0107, x3 = 2.385e-05	0.0087 S/m
x1 = 0.0107, x3 = 2.86e-05	0.01028 S/m
x1 = 0.0107, x3 = 3.328e-05	0.0118 S/m
x1 = 0.0107, x3 = 3.79e-05	0.01332 S/m
x1 = 0.0107, x3 = 4.278e-05	0.0149 S/m
x1 = 0.0107, x3 = 4.74e-05	0.01635 S/m
x1 = 0.0107, x3 = 5.2e-05	0.0178 S/m
x1 = 0.01421, x3 = 1.044e-05	0.00364 S/m
x1 = 0.01421, x3 = 1.582e-05	0.0052 S/m
x1 = 0.01421, x3 = 2.09e-05	0.00666 S/m
x1 = 0.01421, x3 = 2.625e-05	0.00817 S/m
x1 = 0.01421, x3 = 3.215e-05	0.00982 S/m
x1 = 0.01421, x3 = 3.779e-05	0.01136 S/m
x1 = 0.01421, x3 = 4.365e-05	0.013 S/m
x1 = 0.01421, x3 = 4.958e-05	0.0146 S/m
x1 = 0.01421, x3 = 5.535e-05	0.01611 S/m
x1 = 0.0177, x3 = 7.16e-06	0.00235 S/m
x1 = 0.0177, x3 = 1.43e-05	0.00413 S/m
x1 = 0.0177, x3 = 2.14e-05	0.00587 S/m
x1 = 0.0177, x3 = 2.851e-05	0.0076 S/m
x1 = 0.0177, x3 = 3.535e-05	0.00922 S/m
x1 = 0.0177, x3 = 4.182e-05	0.0107 S/m
x1 = 0.0177, x3 = 4.861e-05	0.01232 S/m
x1 = 0.0177, x3 = 5.526e-05	0.0138 S/m
x1 = 0.0177, x3 = 6.177e-05	0.01534 S/m
x1 = 0.0177, x3 = 6.769e-05	0.0167 S/m
x1 = 0.0177, x3 = 7.386e-05	0.01804 S/m
x1 = 0.02116, x2 = 0.9788	0.0134 S/m and 0.0146 S/m and 0.0157 S/m
